“And” between values parts separate entries of the source, which are not always exact repeats. Equal values may be shown once. One block for each compound: values may come before it.
Columns and labels:
human α-thrombin = human α-thrombin (Homo sapiens, UniProt P00734); test: Protease inhibition, Ki for human α-thrombin (fluorogenic substrate Z-Gly-Gly-Arg-AMC); format: biochemical; conditions: replicates R1-R3
Outline: (§1)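 Ki values come from Cheng–Prusoff correction of IC50, itself fitted by four-parameter logistic regression of activity versus a no-peptide control. Assays used 2 nM human or 3 nM rat thrombin, 50 μM Z-Gly-Gly-Arg-AMC, 30 min kinetic fluorescence at 25 °C.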

rat α-thrombin = molecular target: T1, rat α-thrombin (Rattus norvegicus, UniProt P18292); test: Protease inhibition, Ki for rat α-thrombin (fluorogenic substrate Z-Gly-Gly-Arg-AMC); format: biochemical; conditions: replicates R1-R3
T1 construct: rat α-thrombin (Molecular Innovations) were used at final concentrations of 2 nM and 3 nM; purchased Molecular Innovations
Outline: as §1

porcine pepsin = molecular target: T2, porcine pepsin (Sus scrofa, UniProt P00791); test: Peptide stability in simulated gastric fluid (SGF); format: in vitro ADME; conditions: for SGF stability, Residual peptide Average / SGF stability, Residual peptide: after 8 h vs 0 h (TIC); for SGF stability, Residual peptide Average: average of R1-R3; for SGF stability, Residual peptide: single replicates R1-R3; for remaining at 8 h: simulated gi fluid, 37 °C, pH 1.2, read-out: Proteolytic stability: SGF (8 h) % remaining
T2 construct: 0.32 g of porcine pepsin (Sigma-Aldrich, P7125) was dissolved under gentle agitation; purchased Sigma-Aldrich P7125
T2 sequence (P00791 60-385): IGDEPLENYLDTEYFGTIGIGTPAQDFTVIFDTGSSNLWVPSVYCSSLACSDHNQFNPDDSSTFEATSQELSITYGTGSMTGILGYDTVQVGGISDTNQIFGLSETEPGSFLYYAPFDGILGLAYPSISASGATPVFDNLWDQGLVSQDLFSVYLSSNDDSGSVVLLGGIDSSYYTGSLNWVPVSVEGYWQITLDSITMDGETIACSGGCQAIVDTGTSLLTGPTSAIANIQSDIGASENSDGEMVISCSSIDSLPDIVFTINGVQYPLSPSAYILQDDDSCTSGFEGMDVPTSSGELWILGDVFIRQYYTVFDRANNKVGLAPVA
Outline: (§2)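 Peptide from a 1 mM DMSO stock was added to fluid pre-warmed at 37 °C. SGF was pH 1.2 NaCl with porcine pepsin (0.32 g per 100 ml), and SIF was pH 6.8 potassium phosphate with porcine pancreatin (1 g per 100 ml). Supernatant peptide was quantified by LC–MS, with residual expressed as T1/T0.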

[1] = Peptide stability in simulated intestinal fluid (SIF); format: in vitro ADME, porcine; conditions: simulated gi fluid; 8 h, 37 °C, pH 6.8; read-out: Proteolytic stability: SIF (8 h) % remaining
Outline: as §2

porcine pancreatin = test: as above; format: in vitro ADME; conditions: after 8 h vs 0 h (TIC); for SIF stability, Residual peptide Average: average of R1-R3; for SIF stability, Residual peptide: single replicates R1-R3
Outline: as §2

[2] = Passive artificial membrane permeability (PAMPA); conditions: for PAMPA permeability: % permeability: 50 μM, 12–18 h, acceptor concentration relative to equilibrium; for Papp at 50 μM / Permeability% Average / Permeability% R1 / Permeability% R3: PAMPA; for Papp at 50 μM: pH 7.4; for Permeability% Average: average of R1-R3; for Permeability% R1: replicate R1; for Permeability% R1 / Permeability% R3: TIC of top well sample relative to sample at theoretical equilibrium; for Permeability% R3: replicate R3
[3] = Metabolic stability in rat liver microsomes (RLMs); conditions: rat, microsomes
[4] = peptide 1.33E+02 uM, slope of proteolytic substrate cleavage over time
[5] = CL (ul/min/mg protein) R1, RLM CL, replicate R1
[6] = CL (ul/min/mg protein) R2, RLM CL, replicate R2
[7] = CL (ul/min/mg protein) R3, RLM CL, replicate R3
[8] = Half Life (min) R2, RLM metabolic stability, replicate R2, 0-60 min
[9] = Half Life (min) R3, RLM metabolic stability, replicate R3, 0-60 min
[10] = Metabolic stability: RLM CL (ul/min/mg), RLMs, mean and SD, three measurements

Human alpha thrombin inhibition, slope normalized to DMSO (human α-thrombin; peptide 1.02E-03 uM): 85.3 and 95.8 and 95.4
Human alpha thrombin inhibition, slope normalized to DMSO (human α-thrombin; peptide 1.04E+00 uM): 95.4 and 93.0 and 98.3
Human alpha thrombin inhibition, slope normalized to DMSO (human α-thrombin; peptide 1.27E-04 uM): 99.0 and 98.5 and 95.5
Human alpha thrombin inhibition, slope normalized to DMSO (human α-thrombin; peptide 1.30E-01 uM): 95.8 and 97.3 and 101.8
Human alpha thrombin inhibition, slope normalized to DMSO (human α-thrombin; [4]): 27.0 and 31.2 and 38.6
Human alpha thrombin inhibition, slope normalized to DMSO (human α-thrombin; peptide 1.63E-02 uM): 73.4 and 96.6 and 101.4
Human alpha thrombin inhibition, slope normalized to DMSO (human α-thrombin; peptide 1.67E+01 uM): 71.8 and 71.9 and 74.8
Human alpha thrombin inhibition, slope normalized to DMSO (human α-thrombin; peptide 2.03E-03 uM): 97.6 and 95.9 and 99.5
Human alpha thrombin inhibition, slope normalized to DMSO (human α-thrombin; peptide 2.08E+00 uM): 93.5 and 84.6 and 95.9
Human alpha thrombin inhibition, slope normalized to DMSO (human α-thrombin; peptide 2.54E-04 uM): 96.0 and 96.2 and 102.6
Human alpha thrombin inhibition, slope normalized to DMSO (human α-thrombin; peptide 2.60E-01 uM): 94.7 and 95.0 and 96.9
Human alpha thrombin inhibition, slope normalized to DMSO (human α-thrombin; peptide 3.18E-05 uM): 99.1 and 98.5 and 101.4
Human alpha thrombin inhibition, slope normalized to DMSO (human α-thrombin; peptide 3.26E-02 uM): 99.8 and 95.1 and 95.9
Human alpha thrombin inhibition, slope normalized to DMSO (human α-thrombin; peptide 3.33E+01 uM): 58.8 and 60.9 and 67.1
Human alpha thrombin inhibition, slope normalized to DMSO (human α-thrombin; peptide 4.07E-03 uM): 99.1 and 95.8 and 99.3
Human alpha thrombin inhibition, slope normalized to DMSO (human α-thrombin; peptide 4.17E+00 uM): 86.3 and 86.6 and 97.3
Human alpha thrombin inhibition, slope normalized to DMSO (human α-thrombin; peptide 5.09E-04 uM): 101.5 and 95.7 and 97.4
Human alpha thrombin inhibition, slope normalized to DMSO (human α-thrombin; peptide 5.21E-01 uM): 92.8 and 93.8 and 98.4
Human alpha thrombin inhibition, slope normalized to DMSO (human α-thrombin; peptide 6.36E-05 uM): 106.0 and 98.0 and 105.2
Human alpha thrombin inhibition, slope normalized to DMSO (human α-thrombin; peptide 6.51E-02 uM): 96.1 and 98.8 and 99.3
Human alpha thrombin inhibition, slope normalized to DMSO (human α-thrombin; peptide 6.67E+01 uM): 48.6 and 47.5 and 55.0
Human alpha thrombin inhibition, slope normalized to DMSO (human α-thrombin; peptide 8.14E-03 uM): 95.7 and 98.2 and 99.1
Human alpha thrombin inhibition, slope normalized to DMSO (human α-thrombin; peptide 8.33E+00 uM): 83.7 and 83.2 and 97.0
Rat alpha thrombin inhibition, slope normalized to DMSO (rat α-thrombin; [4]): 11.0 and 10.6 and 9.7
Rat alpha thrombin inhibition, slope normalized to DMSO (rat α-thrombin; peptide 1.67E+01 uM): 45.8 and 45.5 and 45.1
Rat alpha thrombin inhibition, slope normalized to DMSO (rat α-thrombin; peptide 2.08E+00 uM): 86.8 and 87.3 and 87.0
Rat alpha thrombin inhibition, slope normalized to DMSO (rat α-thrombin; peptide 3.33E+01 uM): 28.5 and 28.7 and 27.9
Rat alpha thrombin inhibition, slope normalized to DMSO (rat α-thrombin; peptide 4.17E+00 uM): 77.5 and 87.0 and 76.0
Rat alpha thrombin inhibition, slope normalized to DMSO (rat α-thrombin; peptide 6.67E+01 uM): 19.6 and 18.1 and 18.5
Rat alpha thrombin inhibition, slope normalized to DMSO (rat α-thrombin; peptide 8.33E+00 uM): 63.7 and 62.1 and 64.2
SGF stability, Residual peptide Average (porcine pepsin): 100.77
SGF stability, Residual peptide (porcine pepsin): 105.91 and 102.30 and 94.11
remaining at 8 h (porcine pepsin): 101 ± 8%
remaining at 8 h [1]: 92 ± 16%
SIF stability, Residual peptide Average (porcine pancreatin): 92.07
SIF stability, Residual peptide (porcine pancreatin): 101.03 and 73.69 and 101.48
PAMPA permeability: % permeability [2]: 0.16 ± 0.08%
Papp at 50 μM [2]: 0.00933 ×10⁻⁶ cm/s
Permeability% Average [2]: 0.157%
Permeability% R1 [2]: 0.22%
Permeability% R3 [2]: 0.18%
microsomal CLint [3, 5]: 10.5 µL/min/mg
microsomal CLint [3, 6]: 5.63 µL/min/mg
microsomal CLint [3, 7]: 8.11 µL/min/mg
half-life ([3]; Half Life (min) R1, RLM metabolic stability, replicate R1, 0-60 min): > 60 min
half-life [3, 8]: > 60 min
half-life [3, 9]: > 60 min
microsomal CLint [3, 10]: 8.1 ± 2 µL/min/mg
SMILES: O=C(N[C@H]1CSCc2cccc(n2)CSCCNC(=O)[C@H](Cc2c[nH]cn2)NC(=O)C2(CCCC2)NC1=O)c1ccc(Cl)s1 [compound 29]

Human alpha thrombin inhibition, slope normalized to DMSO (human α-thrombin; peptide 1.02E-03 uM): 98.0 and 91.0 and 96.2
Human alpha thrombin inhibition, slope normalized to DMSO (human α-thrombin; peptide 1.04E+00 uM): 90.3 and 89.1 and 92.4
Human alpha thrombin inhibition, slope normalized to DMSO (human α-thrombin; peptide 1.27E-04 uM): 96.9 and 100.1 and 95.3
Human alpha thrombin inhibition, slope normalized to DMSO (human α-thrombin; peptide 1.30E-01 uM): 95.8 and 125.1 and 96.3
Human alpha thrombin inhibition, slope normalized to DMSO (human α-thrombin; [4]): 74.4 and 73.1 and 82.6
Human alpha thrombin inhibition, slope normalized to DMSO (human α-thrombin; peptide 1.63E-02 uM): 97.3 and 90.7 and 96.5
Human alpha thrombin inhibition, slope normalized to DMSO (human α-thrombin; peptide 1.67E+01 uM): 83.1 and 82.1 and 94.4
Human alpha thrombin inhibition, slope normalized to DMSO (human α-thrombin; peptide 2.03E-03 uM): 96.1 and 96.3 and 98.7
Human alpha thrombin inhibition, slope normalized to DMSO (human α-thrombin; peptide 2.08E+00 uM): 89.8 and 84.9 and 90.4
Human alpha thrombin inhibition, slope normalized to DMSO (human α-thrombin; peptide 2.54E-04 uM): 98.3 and 94.9 and 77.9
Human alpha thrombin inhibition, slope normalized to DMSO (human α-thrombin; peptide 2.60E-01 uM): 93.9 and 90.6 and 94.3
Human alpha thrombin inhibition, slope normalized to DMSO (human α-thrombin; peptide 3.18E-05 uM): 98.5 and 92.5 and 100.2
Human alpha thrombin inhibition, slope normalized to DMSO (human α-thrombin; peptide 3.26E-02 uM): 95.9 and 95.8 and 99.6
Human alpha thrombin inhibition, slope normalized to DMSO (human α-thrombin; peptide 3.33E+01 uM): 78.3 and 75.1 and 78.9
Human alpha thrombin inhibition, slope normalized to DMSO (human α-thrombin; peptide 4.07E-03 uM): 94.7 and 93.4 and 96.1
Human alpha thrombin inhibition, slope normalized to DMSO (human α-thrombin; peptide 4.17E+00 uM): 83.3 and 83.5 and 89.8
Human alpha thrombin inhibition, slope normalized to DMSO (human α-thrombin; peptide 5.09E-04 uM): 93.5 and 91.5 and 93.7
Human alpha thrombin inhibition, slope normalized to DMSO (human α-thrombin; peptide 5.21E-01 uM): 92.8 and 90.2 and 92.1
Human alpha thrombin inhibition, slope normalized to DMSO (human α-thrombin; peptide 6.36E-05 uM): 97.2 and 93.5 and 90.4
Human alpha thrombin inhibition, slope normalized to DMSO (human α-thrombin; peptide 6.51E-02 uM): 99.6 and 94.9 and 95.6
Human alpha thrombin inhibition, slope normalized to DMSO (human α-thrombin; peptide 6.67E+01 uM): 77.2 and 75.7 and 77.5
Human alpha thrombin inhibition, slope normalized to DMSO (human α-thrombin; peptide 8.14E-03 uM): 97.4 and 94.0 and 99.7
Human alpha thrombin inhibition, slope normalized to DMSO (human α-thrombin; peptide 8.33E+00 uM): 84.1 and 83.5 and 81.2
Rat alpha thrombin inhibition, slope normalized to DMSO (rat α-thrombin; [4]): 43.4 and 70.6
Rat alpha thrombin inhibition, slope normalized to DMSO (rat α-thrombin; peptide 1.67E+01 uM): 56.7 and 58.6
Rat alpha thrombin inhibition, slope normalized to DMSO (rat α-thrombin; peptide 2.08E+00 uM): 84.9 and 85.4 and 90.4
Rat alpha thrombin inhibition, slope normalized to DMSO (rat α-thrombin; peptide 3.33E+01 uM): 53.0 and 50.7 and 58.4
Rat alpha thrombin inhibition, slope normalized to DMSO (rat α-thrombin; peptide 4.17E+00 uM): 73.8 and 75.0 and 69.4
Rat alpha thrombin inhibition, slope normalized to DMSO (rat α-thrombin; peptide 6.67E+01 uM): 39.7 and 48.9 and 63.6
Rat alpha thrombin inhibition, slope normalized to DMSO (rat α-thrombin; peptide 8.33E+00 uM): 59.4 and 61.3 and 72.8
SGF stability, Residual peptide Average (porcine pepsin): 94.69
SGF stability, Residual peptide (porcine pepsin): 92.56 and 99.47 and 92.05
remaining at 8 h (porcine pepsin): 95 ± 4%
remaining at 8 h [1]: 62 ± 15%
SIF stability, Residual peptide Average (porcine pancreatin): 62.00
SIF stability, Residual peptide (porcine pancreatin): 68.18 and 45.06 and 72.76
PAMPA permeability: % permeability [2]: 5.7 ± 1.3%
Papp at 50 μM [2]: 0.38 ×10⁻⁶ cm/s
Permeability% Average [2]: 5.7%
Permeability% R1 [2]: 7.10%
Permeability% R3 [2]: 4.56%
microsomal CLint [3, 5]: 13.1 µL/min/mg
microsomal CLint [3, 6]: 42.3 µL/min/mg
microsomal CLint [3, 7]: 68.3 µL/min/mg
half-life [3, 8]: 32.8 min
half-life [3, 9]: 20.3 min
half-life ([3]; Metabolic stability: Half life T1/2 (min), RLMs, mean and SD, three measurements): 53 ± 38 min
microsomal CLint [3, 10]: 41 ± 23 µL/min/mg
SMILES: CC(C)[C@@H]1NC(=O)[C@@H](NC(=O)c2ccc(Cl)s2)CNC(=O)CCSCc2cccc(n2)CSCCNC1=O [compound 19]
